Experiment [1] in a line: anti-allergic activity (general statement, no test detailed). The following applies: in our hands.
For experiment [2] the following is noted: authors' conclusion in J.Chem.Soc. Perkin Trans I, 779, 1972; cited from earlier work.
In experiment [3] the test system is Rat PCA response. The experiment can be described thus: Rat Passive Cutaneous Anaphylaxis (PCA) test. In kind it is in vivo, Wistar rats. The protocol: All of the coumarins prepared in the preceeding Examples were submitted for biological testing. The test system was the Rat Passive Cutaneous Anaphylaxis (PCA) test described below in (ii)
i. Serum containing heat labile homocytotropic antibody was raised in rats by a method similar to that used by Mota. (I. Mota Immunology 1964, 7,681).
Male Wistar rats of 250-300 g, were injected intraperitoneally with 0.5 of Bordatella pertussis vaccine (containing 4 × 10^10 dead organism per ml.) and subcutaneously with 0.5 ml of an emulsion of adjuvant. Rats were bled by cardiac puncture on day 18, the blood was pooled and separated and serum stored at -20° and thawed only once before use.
ii. The P.C.A. test was similar to that described by Ovary and Bier (A. Ovary and O. E. Bier, Proc.Soc.Exp. Biol.Med. 1952, 81, 584) and Goose and Blair (J. Goose and AMJ. N. Blair, Immunology 1969, 16, 769).
0.1 ml of each of six twofold serial dilutions of the serum in 0.9% saline were injected intradermally into separate sites on the shaved dorsal surface of 250-350 g. Wistar rats. 72 hours later the animals were challenged by i.v. injection of 0.3 ml of 1% ovalbumin mixed with 0.1 ml of a 5% solution of pontamine sky blue dye in isotonic saline buffered with pH. 7.2 Sorenson buffer (P.B.S.). The rats were killed after 20 minutes and the diameter of the blue wheals at the antibody injection sites were measured. The starting dilution of the serum was adjusted so that there was no response, after challenge, at the site of injection of the highest dilution and a maximum response at the lowest dilution. Typically, six twofold serial dilutions of the serum from 1/4 to 1/128 were used.
Compounds were tested for their ability to reduce the diameter of the wheals at the injection sites of dilutions of antibody which on all the controls have less than maximum response. Amounts of the compounds were administered to rats each amount to a test group of six animals at a specified time prior to intravenous challenge with ovalbumin. The diameters of the blue wheals which developed on the tests group of animals were compared with those on a control group of six animals treated in the same way as the test group, but which had not received the compound under test.
% Inhibition of P.C.A. = 100 (1 - a/b)
a = The mean of the sum of the diameters of the wheals produced in the test group of animals at those antibody sites where all the control group of animals gave less than maximum response.
b = The mean of the sum of diameters of the wheals produced in the control group of animals at those antibody sites where all the animals gave less than maximum response.
The preferred method of administration was a solution of the test compound dissolved in pH 7.2 buffer and neutralised with sodium bicarbonate.

Where [4] appears, read: 1 h, time 60 mins prior to challenge.
Setting [5] is: 0.5 h, time 30 mins prior to challenge.
Setting [6] is: 10 min, time 10 mins prior to challenge.

Our source for the antiallergic activity, anti-allergic activity and inhibition in vivo values is patent publication US4059704A, “Tetrazole coumarin derivatives” (Beecham Group Limited, priority 1973, dated 1977).

Structures are written as SMILES.

As usually defined, the inhibition in vivo is the change of the read-out against control, counted positive when it falls. Take `Cc1c(-c2nnn[nH]2)c(=O)oc2ccccc12` [Example 1, 4-Methyl-3-(tetrazol-5-yl) coumarin, reference compound]: the antiallergic activity result in experiment [1] is on record as “substantial antiallergic activity”. Also, the anti-allergic activity entry in experiment [2] is recorded as “no anti-allergic activity”. In experiment [3] (setting [4]), the inhibition in vivo at 25 mg/kg came out at 38% and the inhibition in vivo at 100 mg/kg stood at 48%.

Regarding `Cc1c(-c2nnn[nH]2)c(=O)oc2ccc(Br)cc12` [Example 2, 6-Bromo-4-methyl-3-(tetrazol-5-yl) coumarin], in experiment [3] (setting [4]), the inhibition in vivo at 25 mg/kg came to 36% and the inhibition in vivo at 100 mg/kg was determined as 44%.

Regarding `Cc1c(-c2nnn[nH]2)c(=O)oc2ccc(Cl)cc12` [Example 3, 6-Chloro-4-methyl-3-(tetrazol-5-yl) coumarin], in experiment [3] (setting [4]), the inhibition in vivo at 25 mg/kg was 28% and the inhibition in vivo at 100 mg/kg was found to be 35%.

Consider `Cc1cc2oc(=O)c(-c3nnn[nH]3)c(C)c2cc1C` [Example 4, 3-(Tetrazol-5-yl)-4,6,7-trimethyl coumarin], for which, in experiment [3] (setting [5]), the inhibition in vivo at 25 mg/kg is 47% and the inhibition in vivo at 100 mg/kg was found to be 70%.

As for `Cc1ccc2oc(=O)c(-c3nnn[nH]3)c(C)c2c1` [Example 5, 4,6-Dimethyl-3-(tetrazol-5-yl) coumarin], in experiment [3] (setting [4]), the inhibition in vivo at 25 mg/kg is 32% and the inhibition in vivo at 100 mg/kg stood at 19%.

On to `Cc1ccc2c(C)c(-c3nnn[nH]3)c(=O)oc2c1` [Example 6, 4,7-Dimethyl-3-(tetrazol-5-yl) coumarin], for which, in experiment [3] (setting [5]), the inhibition in vivo at 25 mg/kg came out at 42% and the inhibition in vivo at 100 mg/kg was found to be 45%.

For `Cc1c(-c2nnn[nH]2)c(=O)oc2c(Cl)cccc12` [Example 7, 8-Chloro-4-methyl-3-(tetrazol-5-yl) coumarin], in experiment [3] (setting [5]), the inhibition in vivo at 25 mg/kg came to 19% and the inhibition in vivo at 100 mg/kg came to 26%.

On to `Cc1c(-c2nnn[nH]2)c(=O)oc2c1ccc1ccccc12` [Example 8, 7,8-Benzo-4-methyl-3-(tetrazol-5-yl) coumarin], for which, in experiment [3] (setting [4]), the inhibition in vivo at 25 mg/kg was 20% and the inhibition in vivo at 100 mg/kg was 30%.

On to `CCc1c(-c2nnn[nH]2)c(=O)oc2ccccc12` [Example 9, 4-Ethyl-3-(tetrazol-5-yl) coumarin], for which, in experiment [3] (setting [5]), the inhibition in vivo at 25 mg/kg is 19% and the inhibition in vivo at 100 mg/kg was found to be 70%.

In the case of `CCCc1c(-c2nnn[nH]2)c(=O)oc2ccccc12` [Example 10, 4-n-Propyl-3-(tetrazol-5-yl) coumarin], in experiment [3] (setting [5]), the inhibition in vivo at 25 mg/kg was -12% and the inhibition in vivo at 100 mg/kg came out at 45%.

As to `O=c1oc2ccccc2c(-c2ccccc2)c1-c1nnn[nH]1` [Example 11, 4-Phenyl-3-(tetrazol-5-yl) coumarin], in experiment [3] (setting [5]), the inhibition in vivo at 25 mg/kg is -10% and the inhibition in vivo at 100 mg/kg worked out at 14%.

As to `CCc1cc2oc(=O)c(-c3nnn[nH]3)c(C)c2cc1CC` [Example 12, 6,7-Diethyl-4-methyl-3(tetrazol-5-yl) coumarin], in experiment [3] (setting [6]), the inhibition in vivo at 25 mg/kg was -6% and the inhibition in vivo at 100 mg/kg was -1%. Further, in experiment [3] (setting [4]), the inhibition in vivo at 25 mg/kg worked out at 10% and the inhibition in vivo at 100 mg/kg came out at 42%.
